Results as given in patent publication US20230310334A1, “LIPID NANOPARTICLE” (SHENZHEN SHENXIN BIOTECHNOLOGY CO., LTD., priority 2020, published 2023).

Tested on: luciferase mRNA (Fluc mRNA) expression
Assay: Luciferase mRNA delivery performance in vivo of lipid nanoparticles prepared from amino lipid compounds (IVIS imaging)
Design: species or system BALB/c mice
Settings: Fluc mRNA LNP, 0.5 mg/kg, imaging 6 hours after injection, male BALB/c mice; for Average fluorescence intensity (intramuscular) / Average fluorescence intensity (subcutaneous): preparation process I (DOPE); for Average fluorescence intensity (tail vein): preparation process II (DSPC)
Procedure: Example 40: Evaluation of Luciferase mRNA Delivery Performance In Vivo of Lipid Nanoparticles Prepared from Amino Lipid Compounds
Preparation of lipid nanoparticles:
Preparation process I: The amino lipid compound described in the present invention and DOPE, cholesterol, PEG2000-DMG were mixed and dissolved in absolute ethanol in a molar ratio of 45:10:42.5:2.5. Two microinjection pumps were used, and the ratio of ethanol solution to sodium acetate solution (50 mM, pH=4.0) was controlled to be 1:3. A crude solution of lipid nanoparticles was prepared in a micro flow channel chip, then dialyzed for 6 hours with 1×PBS at a controlled temperature of 4° C. by using a dialysis cassette (Fisher, MWCO 20,000), and filtered with a 0.22 μm microporous filter membrane before use. The mass ratio of the amino lipid compound to luciferase mRNA (Fluc mRNA) was about 10:1. The administration route included subcutaneous and intramuscular injections.
Preparation process II: the molar ratio of amino lipid compound to DSPC, cholesterol, PEG2000-DMG was 50:10:38.5:1.5, and the preparation process was identical to the preparation process I. The administration route was tail vein administration.
Animal preparation: 6-week-old male BALB/c mice with body weights of about 20 g were selected, and fed in an SPF-grade feeding room. Animal experiments were strictly carried out according to the guidelines of the national health institution and the requirements of animal ethics. In vivo delivery: 9 mice were randomly selected per group and injected with lipid nanoparticles at a dose of 0.5 mg/kg by three administration routes: subcutaneous, intramuscular, and tail vein, respectively (three animals per administration route). After 6 hours, […] of 10 mg/mL potassium […] was injected into each mouse via the tail vein, and after 10 minutes, the mice were placed under an in vivo imaging system (IVIS-200, Xenogen), and the total fluorescence intensity of each mouse was observed and recorded by photographing. The expression intensities of Fluc mRNA delivered by the three administration routes of representative amino lipid compounds were shown in Tables 1-3. DLin-MC3 was used as a control.

Compound | Average fluorescence intensity (intramuscular) | Average fluorescence intensity (subcutaneous) | Average fluorescence intensity (tail vein)
CCCCC/C=C\C/C=C\CCCCCCCCC(CCCCCCCC/C=C\C/C=C\CCCCC)OC(=O)CCCN(C)C [Compound 35, (6Z,9Z,28Z,31Z)-heptatriacont-6,9,28,31-tetraene-19-yl 4-(N,N-dimethylamino)butanoate, reference compound] | 3.9E+03 | 4.1E+04 | 6.2E+06
CCCCCCCCCOC(=O)CCCCCCCN(CCCCO)CCCCCCCC(=O)OC(CCCCCCCC)CCCCCCCC [Compound 36, reference compound] |  | 1.1E+05 | 4.2E+05
CCCCCCCCCOC(=O)CCCCCCCN(CCCCCCCC(=O)OC(CCCCCCCC)CCCCCCCC)CCCN(C)C [Compound 37, reference compound] | 2.5E+06 | 2.0E+05 | 
